Measurements: US10555894B2, “Plant extract comprising sucrose esters as an active agent for use in cosmetic, dermatological or nutricosmetic composition” (COSMO INTERNATIONAL INGREDIENTS, priority 2014, dated 2020)

How the values were obtained:
[1] = test system: normal human epidermal melanocytes (NHEM); assay: Synthesis of melanin in melanocytes stimulated by L-tyrosine; assay type: cell-based; conditions: L-tyrosine 1 mM, 10 days, tested at 5 μg/ml
Method: The depigmentation effect potential of the Uchuva extract has been researched in a model of normal human epidermal melanocytes (NHEM). The effect of the Uchuva extract on the synthesis of melanin has been evaluated after ten incubation days under conditions stimulated by L-tyrosine. In this test, the reference inhibitory molecule is lipoic acid. Its action mechanism calls for an inhibition of the expression of the MITF transcription factor (microphthalmia-associated transcription factor). This transcription factor is the major regulator of the expression of tyrosinase and its inhibition results in the reduction of the expression of tyrosinase, enzyme involved in the melanin synthesis. The melanocytes have been sown in 24 wells plate and cultivated in the culture medium for 24 hours. […] After incubation, the melanin has been extracted by lysis of the cells with a solution of NaOH 0.5 N. The optical density (OD) of the samples has been measured at 405 nm, then the quantity of melanin has been determined in comparison with a range of exogenous melanin (melanin curve including standards from 0.39 to 100 μg/ml). […] After dissociation of the cells and solubilisation of the formazan by addition of DMSO, the optical density (OD), which represents the number of living cells and their metabolic activity, has been measured with a 540 nm microplate reader (VERSAmax, Molecular Devices).

[2] = test system: coding genes for differentiation proteins of the keratinocyte in normal human epidermal keratinocytes (NHEK); assay: Transcriptomic analysis (Affymetrix U219 chip) of treated keratinocytes; assay type: cell-based; conditions: 0.8 μg/ml; for expression of coding genes for differentiation proteins of the keratinocyte: KRT1, IVL, DSG1, DSC1, SPRR2A, SPRR2E, SPRR1A, SPRR2D, CALML5, SBSN and KRTDAP: 4 or 24 hours; for effect on the differentiation of the keratinocytes: deduced from gene expression
Method: (§1) The effects of fractions I, II and […] have been researched on by transcriptomic analysis on models of normal human epidermal keratinocytes and human dermal fibroblasts. This global transcript expression analysis has been carried out after 4 to 24 hours of incubation by using the Affymetrix GeneAtlas™ platform and the U219 “full human transcriptome” chip containing 36,000 transcripts and variants.
(§2) • Cellular type: Normal human epidermal keratinocytes (NHEK) • Culture conditions: 37° C., 5% CO2 • Culture medium: Keratinocyte-SFM supplemented with Epidermal Growth Factor (EGF) 0.25 ng/ml Pituitary Extract (PE) 25 μg/ml Gentamycin 25 μg/ml • Test medium: Keratinocyte-SFM supplemented with Gentamycin 25 μg/ml Normal Human Dermal Fibroblasts (NHDF) • Cellular type: Normal human dermal fibroblasts (NHDF), • Culture conditions: 37° C., 5% CO2 • Culture medium: DMEM supplemented with • L-glutamine 2 mM • Penicillin 50 U/ml—Streptomycin 50 μg/ml • Calf foetal serum (CFS) 10% • Test medium: DMEM supplemented with • L-glutamine 2 mM • Penicillin 50 U/ml—Streptomycin 50 μg/ml • CFS 1% 2. Tested Compounds
The cells have been introduced and cultivated in the culture medium for 24 hours and then incubated in their test medium for another 24 hours. Then, the medium has been replaced by the test medium containing or not containing (control) the test compounds and the cells have been incubated for 4 or 24 hours. All the conditions have been completed in n=3.
At the end of the incubation, the culture supernatants have been removed and the cell layers have been rinsed with a PBS solution. The plates have been immediately dry frozen at −80° C.
The total RNA of each sample have been extracted using TriPure Isolation Reagent® as per the protocol recommended by the supplier. The quantity and quality of the RNA have been evaluated by capillary electrophoresis (Bioanalyzer 2100, Agilent).
The amplification of the RNA and the synthesis of the biotinylated RNA analogues (RNAa) have been carried out using the “GeneChip 3'IVT Express” kit (Affymetrix®). The single-strand complementary DNA (cDNA) have been synthesised by reverse transcription of the total RNA in the presence of oligo(dT). By action of a DNA polymerase, a double-stranded cDNA (ds DNA) has been synthesised. Biotinylated RNA have then been synthesised from the cDNA and in the presence of biotinylated ribonucleotide analogues. After a purification stage on magnetic beads, which enables to remove salts, enzymes and free nucleotides, the biotinylated RNA have been hydrolysed into fragments from 35 to 200 nucleotides with a peak at 100-120 nucleotides (fragmented targets). […]

[3] = test system: coding gene for fibrillin 1 (FBN1) in normal human dermal fibroblasts (NHDF); assay: Transcriptomic analysis (Affymetrix U219 chip) of treated fibroblasts; assay type: cell-based; conditions: 0.8 μg/ml
Method: as §1
as §2, with “Compounds […]” for “Compounds”
The total RNA of each sample have been extracted using TriPure Isolation Reagent® as per the protocol recommended by the supplier. The quantity and quality of the RNA have been evaluated by capillary electrophoresis (Bioanalyzer 2100, Agilent). […]

Collagen IV = assay: Expression of Collagen IV in fibroblasts by immunocytology, fluorescence scoring; assay type: cell-based, human; conditions: positive control element, 48 hours
Method: The two concentrations of 4.10-5% and 8.10-5% of the Uchuva extract have been tested.
The cells are introduced on D0, in Millicell 8 wells slides, at a rate of 4.103 cells per ml in 400 μl of complete medium. They are treated on D1 for 48 hours with culture in a complete medium. The concentrations of the active to be tested are expressed in % of the extract. The stock solution of the extract has been prepared in DMSO with 20% concentration (w/v). The first dilution has been made to 1/1000th. The following dilutions have been made while maintaining the final DMSO concentration at 0.1%. After 48 hours, the cells are fixed by an alcohol/acid mixture. Then, the cells are marked using an anti-collagen IV antibody (Rockland) diluted in PBS+BSA/tween to 1/50 for 1 hour. The slides are then rinsed twice by PBS. The revelation of the specific marking is done using an FITC coupled secondary antibody (Santa-Cruz) diluted in PBS+BSA/tween to 1/100 for 1 hour. The slides are then rinsed twice by PBS and put between the slide and the cover glass using the RotiMount Fluocare+DAPI (Roth) mounting fluid.
Photos in green and blue are taken using a DP72 camera (Olympus, Japan) connected to a BX-60 epifluorescence microscope (Olympus, Japan).
The photos have been observed by two readers and a scoring of the intensity of fluorescence has done on a linear scale from 0 (no marking) to 4 (very high marking). […]

SMILES: O=C(O)CCCC[C@@H]1CCSS1 (racemic) [lipoic acid]
- inhibition of the synthesis of melanin [1]: 108%

SMILES: CCCCCCCCCC(=O)O[C@H]1[C@@H](O[C@]2(CO)O[C@H](CO)[C@@H](O)[C@@H]2OC(=O)C(C)C)O[C@H](CO)[C@@H](OC(=O)C(C)C)[C@@H]1OC(=O)C(C)C [Fraction I, 3-O-(2-methyl-1-oxopropyl)-β-D-fructofuranosyl (1→2)-3,4-bis(2-methylpropanoate)-2-decanoate-α-D-glucopyranoside]
- expression of coding genes for differentiation proteins of the keratinocyte: KRT1, IVL, DSG1, DSC1, SPRR2A, SPRR2E, SPRR1A, SPRR2D, CALML5, SBSN and KRTDAP [2]: expression inhibitions
- effect on the differentiation of the keratinocytes [2]: anti differentiating effect

SMILES: CCCCCCCCCC(=O)O[C@H]1[C@@H](O[C@]2(CO)O[C@H](CO)[C@@H](O)[C@@H]2OC(=O)CC(C)C)O[C@H](CO)[C@@H](OC(=O)C(C)C)[C@@H]1OC(=O)C(C)C [Fraction II, 3-O-(3-methyl-1-oxobutyl)-β-D-fructofuranosyl (1→2)-3,4-bis(2-methylpropanoate)-2-decanoate-α-D-glucopyranoside]
- expression of coding genes for differentiation proteins of the keratinocyte: KRT1, IVL, DSG1, DSC1, SPRR2A, SPRR2E, SPRR1A, SPRR2D, CALML5, SBSN and KRTDAP [2]: expression inhibitions
- effect on the differentiation of the keratinocytes [2]: anti differentiating effect
- expression of the coding gene for fibrillin 1 (FBN1), fold change ([3]; 4 hours): 3.27 X
- expression of the coding gene for fibrillin 1 (FBN1), fold change ([3]; 24 hours): 8.24 X

SMILES: C[C@H](O)[C@H](O)[C@@H](O)[C@@H](O)C=O [rhamnose]
- increase in expression of Collagen IV, amplitude compared with the Uchuva extract (Collagen IV): comparable
